Experimental findings from the supplement of paper PMC11208160 are described below.
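Note: IS621 bridge recombinase in Escherichia coli cells against a fixed T5 target plasmid.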

The nature of this data set: recombinant UMI read abundance after kanamycin selection (control-corrected) (log10(CPM+1)); higher = more efficient recombination; extreme values may be limits of the assay; sequences stand for … in AGTGCAGAGAAAATCGGCCAGTTTTCTCTGCCTGCAGTCCGCATGCCGTGGGACCCCTTGGGTTCTAACCTGTTGCCTAGATTTATGCAGCGGACTGCCTTTCTCCCAAAGTGATAAACCGG…AGGTTGGTTTCACT; site = the 11-nt donor. An outline of the steps: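 For the IS621 bridge recombinase, a pooled Escherichia coli screen tested donor and donor-binding-loop pairs. Cells received the pair library together with a target plasmid encoding a fixed target and T7-inducible recombinase, then went onto IPTG (0.07 mM) plus kanamycin or unselected plates in duplicate. After PCR across the donor–target junction and sequencing, recombinant UMI counts were normalized to CPM, averaged, and scaled by control-derived factors. Each value is given as log10(CPM+1).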
With “CTACTAACATGGACCGGTTTTCCCGGTAATCCGTATTTGGA (site CTGCTAACTTC)”, the “recombinant UMI read abundance (log10)” value is 0.331.
In the case of “CTACTAACATGGACCGGTTTTCCCGGTAATCCGTATTTGGA (site CTTCTAACTTC)” it was 0.11; in that of “CTACTAACATGGACCGGTTTTCCCGGTAATCCGTATTTGGA (site GTACTAACTTC)”, 0.0739.
In the case of “CTACTAACATGGACCGGTTTTCCCGGTAATCCGTATTTGGA (site TTACTAACTTC)” it was 0.417.
With “CTACTAGCATGGACCGGTTTTCCCGGTAATCCGTATTTGAC (site CTACTAGCTGT)” the figure was 2.64; with “CTACTAGCATGGACCGGTTTTCCCGGTAATCCGTATTTGAC (site CTAGTATCTGT)”, 0.
Consider “CTACTATCATGGACCGGTTTTCCCGGTAATCCGTATTTGAA (site CTACTATCTTT)”, for which the “recombinant UMI read abundance (log10)” value amounted to 2.45.
In the case of “CTACTATCATGGACCGGTTTTCCCGGTAATCCGTATTTGAA (site CTAGTATCTGT)” it was 0; in that of “CTACTCACATGGACCGGTTTTCCCGGTAATCCGTATTTGGA (site CTACTAACTTC)”, 0.63.
In the case of “CTACTCACATGGACCGGTTTTCCCGGTAATCCGTATTTGGA (site CTACTCACTTC)” it was 2.16.
For “CTACTCACATGGACCGGTTTTCCCGGTAATCCGTATTTGGA (site CTACTGACTTC)”, the “recombinant UMI read abundance (log10)” value is 0.0219.
In the case of “CTACTCACATGGACCGGTTTTCCCGGTAATCCGTATTTGGA (site CTACTTACTTC)” it was 0.361.
With “CTAGAAACATGGACCGGTTTTCCCGGTAATCCGTATTTGAC (site CTAGAAACTGT)”, the “recombinant UMI read abundance (log10)” value came to 2.76.
In the case of “CTAGAAACATGGACCGGTTTTCCCGGTAATCCGTATTTGAC (site CTAGTATCTGT)”, the “recombinant UMI read abundance (log10)” value is 0.00659.
With “CTAGAAACATGGACCGGTTTTCCCGGTAATCCGTATTTGCA (site CTAGAAACTTG)” the figure was 2.59; with “CTAGAAACATGGACCGGTTTTCCCGGTAATCCGTATTTGCA (site CTCGAAACTTG)”, 0; with “CTAGAAACATGGACCGGTTTTCCCGGTAATCCGTATTTGCA (site CTGGAAACTTG)”, 1.83.
Regarding “CTAGAAACATGGACCGGTTTTCCCGGTAATCCGTATTTGCA (site CTTGAAACTTG)”, the “recombinant UMI read abundance (log10)” value is 0.422.
Regarding “CTAGAATCATGGACCGGTTTTCCCGGTAATCCGTATTTGAG (site CTAGAATCTCT)”, the “recombinant UMI read abundance (log10)” value is 3.11.
With “CTAGAATCATGGACCGGTTTTCCCGGTAATCCGTATTTGAG (site CTAGTATCTGT)” the figure was 0; with “CTAGACCCATGGACCGGTTTTCCCGGTAATCCGTATTTGGA (site CTAGACCCTTC)”, 0.351.
With “CTAGATTCATGGACCGGTTTTCCCGGTAATCCGTATTTGGA (site CTAGATTCTTC)” the figure was 2.84; with “CTAGCATCATGGACCGGTTTTCCCGGTAATCCGTATTTGCC (site CTAGCATCTGG)”, 2.4; with “CTAGCATCATGGACCGGTTTTCCCGGTAATCCGTATTTGCC (site CTAGTATCTGT)”, 0.
In the case of “CTAGCCACATGGACCGGTTTTCCCGGTAATCCGTATTTGGA (site GACCAATCTAA)”, the “recombinant UMI read abundance (log10)” value came to 0.
In the case of “CTAGCTGCATGGACCGGTTTTCCCGGTAATCCGTATTTGTG (site ATAGCTGCTCA)” it was 0.0231; in that of “CTAGCTGCATGGACCGGTTTTCCCGGTAATCCGTATTTGTG (site CTAGCTGCTCA)”, 1.75; in that of “CTAGCTGCATGGACCGGTTTTCCCGGTAATCCGTATTTGTG (site GTAGCTGCTCA)”, 0.0102.
With “CTAGCTGCATGGACCGGTTTTCCCGGTAATCCGTATTTGTG (site TTAGCTGCTCA)” the figure was 0.0211.
With “CTAGCTTCATGGACCGGTTTTCCCGGTAATCCGTATTTGTG (site CTAGCTTCTCA)” the figure was 2.19; with “CTAGGTGCATGGACCGGTTTTCCCGGTAATCCGTATTTGAT (site CAAGGTGCTAT)”, 1.59.
Turning to “CTAGGTGCATGGACCGGTTTTCCCGGTAATCCGTATTTGAT (site CCAGGTGCTAT)”, the “recombinant UMI read abundance (log10)” value was 1.39.
With “CTAGGTGCATGGACCGGTTTTCCCGGTAATCCGTATTTGAT (site CGAGGTGCTAT)” the figure was 0.0806.
In the case of “CTAGGTGCATGGACCGGTTTTCCCGGTAATCCGTATTTGAT (site CTAGGTGCTAT)” it was 2.14.
